Measurements as given in publication PMC9040678, “Sequence-specific capture and concentration of viral RNA by type III CRISPR system enhances diagnostic” (Research Square, 2022).

Target: T1, TtCan1 (Thermus thermophilus, UniProt Q53W14)
T1 construct: gene TTHB155; codon-optimised synthetic gene, E. coli BL21(DE3); N-terminal His6-TwinStrep-SUMO tag removed; monomeric
T1 sequence (Q53W14 1-636): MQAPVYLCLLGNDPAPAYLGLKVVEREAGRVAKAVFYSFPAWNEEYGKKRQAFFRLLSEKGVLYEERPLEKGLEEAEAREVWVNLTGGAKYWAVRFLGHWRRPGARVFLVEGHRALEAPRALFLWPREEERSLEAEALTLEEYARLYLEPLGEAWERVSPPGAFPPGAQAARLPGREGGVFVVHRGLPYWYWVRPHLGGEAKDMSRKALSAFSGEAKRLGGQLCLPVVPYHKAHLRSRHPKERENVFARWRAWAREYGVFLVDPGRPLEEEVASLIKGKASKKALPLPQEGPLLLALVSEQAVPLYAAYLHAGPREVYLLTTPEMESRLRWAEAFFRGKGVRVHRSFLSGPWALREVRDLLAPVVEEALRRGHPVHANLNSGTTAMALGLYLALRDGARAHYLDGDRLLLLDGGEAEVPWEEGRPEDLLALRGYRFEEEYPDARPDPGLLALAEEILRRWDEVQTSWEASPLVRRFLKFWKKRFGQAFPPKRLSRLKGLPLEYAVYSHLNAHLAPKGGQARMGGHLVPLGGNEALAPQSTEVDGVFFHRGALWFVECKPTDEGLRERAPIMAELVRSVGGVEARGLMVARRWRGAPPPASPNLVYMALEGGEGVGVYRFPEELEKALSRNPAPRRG
Assay: ssRNA cleavage, denaturing PAGE; fluorescent RNA reporters
Type: biochemical
Details: allosteric activator of ssRNase activity; 200 nM enzyme, 20 nM cA4, pH 7.8, 60 °C

Nc1ncnc2c1ncn2[C@@H]1O[C@@H]2COP(=O)(O)O[C@H]3[C@@H](O)[C@H](n4cnc5c(N)ncnc54)O[C@@H]3COP(=O)(O)O[C@H]3[C@@H](O)[C@H](n4cnc5c(N)ncnc54)O[C@@H]3COP(=O)(O)O[C@H]3[C@@H](O)[C@H](n4cnc5c(N)ncnc54)O[C@@H]3COP(=O)(O)O[C@H]2[C@H]1O [cA4]
ssRNA cleavage, denaturing PAGE; fluorescent RNA reporters: TtCan1 is a cA4-dependent single-stranded RNase (ssRNA) but does not cleave ssDNA
